{
  "source": "PubChem BioAssay AID330",
  "about": "(DTP/NCI, 2004)",
  "test_system": "P388 leukemia ip, CD2F1 mice, survival T/C",
  "assay": "NCI In Vivo Anticancer Drug Screen. Data for tumor model P388 Leukemia (intraperitoneal) in CD2F1 (CDF1) mice",
  "settings": "endpoint: median survival time, higher = longer survival",
  "summary_of_the_method": "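Mice carrying the transplanted tumor received test compound or vehicle. Survival was recorded in each group, and the value is the treated-group measurement divided by that of the vehicle-treated control group.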",
  "key": {"[1]": {"settings": "dose: 100.0 mg/kg/injection, schedule: Q04DX003 (ip), vehicle: Klucel (hydroxypropylcellulose) (HPC)"}, "[2]": {"settings": "dose: 200.0 mg/kg/injection, schedule: Q04DX003 (ip), vehicle: Klucel (hydroxypropylcellulose) (HPC)"}, "[3]": {"settings": "dose: 400.0 mg/kg/injection, schedule: Q04DX003 (ip), vehicle: Klucel (hydroxypropylcellulose) (HPC)"}, "[4]": {"settings": "dose: 50.0 mg/kg/injection, schedule: Q01DX009 (ip), vehicle: saline with Tween-80"}},
  "note": "Where “and” joins values, the source holds several entries; their conditions need not be identical. Equal entries are not always repeated. Inconclusive results and toxic doses are left out.",
  "data": [
    {"compound": "CCN1/C(=C\\C2=C([O-])C(=C/c3sc4ccccc4[n+]3CC)/C2=O)Sc2ccccc21", "values": [
      {"measurement": "T/C", "setting": "dose: 60.0 mg/kg/injection, schedule: Q01DX005 (ip), vehicle: Klucel (hydroxypropylcellulose) (HPC)", "value": "103 % of control"},
      {"measurement": "T/C", "setting": "dose: 120.0 mg/kg/injection, schedule: Q01DX005 (ip), vehicle: Klucel (hydroxypropylcellulose) (HPC)", "value": "119 % of control"},
      {"measurement": "T/C", "setting": "dose: 240.0 mg/kg/injection, schedule: Q01DX005 (ip), vehicle: Klucel (hydroxypropylcellulose) (HPC)", "value": "86 % of control"}
    ]},
    {"compound": "CNC(=O)C(C(=O)NC)c1ccccc1", "values": [
      {"measurement": "T/C", "setting": "[1]", "value": "95 % of control"},
      {"measurement": "T/C", "setting": "[2]", "value": "95 % of control"},
      {"measurement": "T/C", "setting": "[3]", "value": "96 % of control"}
    ]},
    {"compound": "CC1(C#N)CCCC(c2ccccc2)(c2ccccc2)C1=O", "note": "(stereo not drawn)", "values": [
      {"measurement": "T/C", "setting": "[1]", "value": "103 % of control"},
      {"measurement": "T/C", "setting": "[2]", "value": "98 % of control"},
      {"measurement": "T/C", "setting": "[3]", "value": "100 % of control"}
    ]},
    {"compound": "COc1cc(OC)c(NC(=O)O/N=C(\\c2ccccc2)C(O)c2ccccc2)cc1Cl", "note": "(stereo not drawn)", "values": [
      {"measurement": "T/C", "setting": "[4]", "value": "91 % of control"},
      {"measurement": "T/C", "setting": "dose: 100.0 mg/kg/injection, schedule: Q01DX009 (ip), vehicle: saline with Tween-80", "value": "91 % of control"},
      {"measurement": "T/C", "setting": "dose: 200.0 mg/kg/injection, schedule: Q01DX009 (ip), vehicle: saline with Tween-80", "value": "90 % of control"}
    ]},
    {"compound": "CC1CC[P+](C)(c2ccccc2)c2ccccc21", "note": "(stereo not drawn)", "values": [
      {"measurement": "T/C", "setting": "dose: 6.25 mg/kg/injection, schedule: Q04DX002 (ip), vehicle: saline", "value": "100 % of control"},
      {"measurement": "T/C", "setting": "dose: 12.5 mg/kg/injection, schedule: Q04DX002 (ip), vehicle: saline", "value": "103 % of control"}
    ]},
    {"compound": "CC(C)NCC(O)COc1ccccc1C1CCCCC1", "note": "(stereo not drawn)", "values": [
      {"measurement": "T/C", "setting": "dose: 6.25 mg/kg/injection, schedule: Q01DX009 (ip), vehicle: Klucel (hydroxypropylcellulose) (HPC)", "value": "103 % of control"},
      {"measurement": "T/C", "setting": "dose: 6.25 mg/kg/injection, schedule: Q01DX009 (ip), vehicle: saline with Tween-80", "value": "102 % of control"},
      {"measurement": "T/C", "setting": "dose: 12.5 mg/kg/injection, schedule: Q01DX009 (ip), vehicle: Klucel (hydroxypropylcellulose) (HPC)", "value": "106 % of control"},
      {"measurement": "T/C", "setting": "dose: 12.5 mg/kg/injection, schedule: Q01DX009 (ip), vehicle: saline with Tween-80", "value": "123 % of control and 94 % of control"},
      {"measurement": "T/C", "setting": "dose: 25.0 mg/kg/injection, schedule: Q01DX009 (ip), vehicle: saline with Tween-80", "value": "102 % of control and 113 % of control"},
      {"measurement": "T/C", "setting": "dose: 50.0 mg/kg/injection, schedule: Q01DX009 (ip), vehicle: Klucel (hydroxypropylcellulose) (HPC)", "value": "104 % of control"},
      {"measurement": "T/C", "setting": "[4]", "value": "99 % of control and 118 % of control and 96 % of control"},
      {"measurement": "T/C", "setting": "dose: 100.0 mg/kg/injection, schedule: Q01DX009 (ip), vehicle: Klucel (hydroxypropylcellulose) (HPC)", "value": "98 % of control"}
    ]},
    {"compound": "CCC1(C)CCC2(C)C(CCC3C4(C)CCCC32OC4=O)C1", "note": "(stereo not drawn)", "values": [
      {"measurement": "T/C", "setting": "dose: 25.0 mg/kg/injection, schedule: Q01DX005 (ip), vehicle: Klucel (hydroxypropylcellulose) (HPC)", "value": "96 % of control"},
      {"measurement": "T/C", "setting": "dose: 50.0 mg/kg/injection, schedule: Q01DX005 (ip), vehicle: Klucel (hydroxypropylcellulose) (HPC)", "value": "99 % of control"},
      {"measurement": "T/C", "setting": "dose: 100.0 mg/kg/injection, schedule: Q01DX005 (ip), vehicle: Klucel (hydroxypropylcellulose) (HPC)", "value": "101 % of control and 103 % of control"},
      {"measurement": "T/C", "setting": "dose: 200.0 mg/kg/injection, schedule: Q01DX005 (ip), vehicle: Klucel (hydroxypropylcellulose) (HPC)", "value": "99 % of control"}
    ]},
    {"compound": "COc1cccc2c1C(=O)c1c(O)c3c(c(O)c1C2=O)C[C@@](O)(C(O)CO)C[C@@H]3OC1CC(N)C(O)C(C)O1", "note": "(stereo partly drawn)", "values": [
      {"measurement": "T/C", "setting": "dose: 0.78 mg/kg/injection, schedule: Q01DX009 (ip), vehicle: water", "value": "155 % of control and 150 % of control"},
      {"measurement": "T/C", "setting": "dose: 1.56 mg/kg/injection, schedule: Q01DX009 (ip), vehicle: water", "value": "174 % of control and 168 % of control"},
      {"measurement": "T/C", "setting": "dose: 2.0 mg/kg/injection, schedule: Q01DX009 (ip), vehicle: water", "value": "183 % of control"},
      {"measurement": "T/C", "setting": "dose: 3.13 mg/kg/injection, schedule: Q01DX009 (ip), vehicle: water", "value": "192 % of control and 200 % of control"},
      {"measurement": "T/C", "setting": "dose: 4.0 mg/kg/injection, schedule: Q01DX009 (ip), vehicle: water", "value": "211 % of control"},
      {"measurement": "T/C", "setting": "dose: 6.25 mg/kg/injection, schedule: Q01DX009 (ip), vehicle: water", "value": "260 % of control and 197 % of control and 264 % of control"},
      {"measurement": "T/C", "setting": "dose: 6.25 mg/kg/injection, schedule: Q04DX003 (ip), vehicle: water", "value": "116 % of control"},
      {"measurement": "T/C", "setting": "dose: 8.0 mg/kg/injection, schedule: Q01DX009 (ip), vehicle: water", "value": "266 % of control"},
      {"measurement": "T/C", "setting": "dose: 12.5 mg/kg/injection, schedule: Q01DX009 (ip), vehicle: water", "value": "95 % of control"},
      {"measurement": "T/C", "setting": "dose: 16.0 mg/kg/injection, schedule: Q01DX009 (ip), vehicle: water", "value": "94 % of control"},
      {"measurement": "T/C", "setting": "dose: 25.0 mg/kg/injection, schedule: Q04DX003 (ip), vehicle: water", "value": "198 % of control"},
      {"measurement": "T/C", "setting": "dose: 50.0 mg/kg/injection, schedule: Q04DX003 (ip), vehicle: water", "value": "172 % of control"}
    ]}
  ]
}
